EP0249394B1 (THE UNITED STATES OF AMERICA as represented by the …, priority 1986, dated 1993)

Tested on: T4 viral receptors
Assay: General statements: binding to T4 viral receptors / inhibition of gp 120 binding to brain membranes
Description: Radiolabeling of gp 120, Preparation of Brain Membranes, Binding and Crosslinking of gp120 to Receptor, and Immunoprecipitation of T4 Antigen. HTLV-IIIb isolate of HIV was propaged in H9 cells, and the gp120 was isolated by immunoaffinity chromatography and preparative NaDodSO₄/PAGE. Purified gp120 was labeled with ¹²⁵I by the chloramine-T method.
Fresh human, monkey, and rat hippocampus were quickly homogenized (Polytron, Brinkmann Instruments) in 100 vol of ice-cold 50 mM Hepes (pH 7.4). The membranes collected by centrifugation (15,000 x g) were washed in the original buffer volume and were used fresh or stored at -70°C. Before use, brain membranes and highly purified T cells (ref. 16; gift of Larry Wahl) were preincubated for 15-30 min in phosphate-buffered saline (PBS). Membranes derived from 2mg (initial wet weight) of brain (≈100µg of protein) were incubated with 28,000 cpm of ¹²⁵I-gp120 for 1 hr at 37°C in 200 µl (final volume) of 50 mM Hepes containing 0.1% bovine serum albumin and the peptidase inhibitors bacitracin (0.005%), aprotinin (0.005%), leupeptin (0.001%), and chymostatin (0.001%). Incubations were rapidly vacuum-filtered and counted to determine the receptor-bound material.

Substance: CYS-THR-THR-ASN-TYR-THR-CYS (CTTNYTC; printed: CYS-THR-THR-ASN-TYR-THR-CYS) [seven amino acid peptide]
- activity (test not specified): active
